Test results published in PubChem BioAssay (NCI).
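Cultured in 96-well plates, cells were exposed to test compound for 48 hours across five concentrations. Abbreviation: GI50, concentration required for 50% inhibition of growth. TGI is the concentration that stops growth completely.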

Experiments:
Test in all cases: growth of human tumour cells (NCI), 48 h
MDA-MB-231 breast = tested on: MDA-MB-231 breast
SF-268 CNS = tested on: SF-268 CNS
OVCAR-4 ovarian = tested on: OVCAR-4 ovarian
SK-OV-3 ovarian = tested on: SK-OV-3 ovarian
HCT-116 colon = tested on: HCT-116 colon
HCC-2998 colon = tested on: HCC-2998 colon
MALME-3M melanoma = tested on: MALME-3M melanoma
T-47D breast = tested on: T-47D breast

SMILES | GI50 (MDA-MB-231 breast) | TGI (MDA-MB-231 breast) | GI50 (SF-268 CNS) | TGI (SF-268 CNS) | GI50 (OVCAR-4 ovarian) | TGI (OVCAR-4 ovarian) | GI50 (SK-OV-3 ovarian) | TGI (SK-OV-3 ovarian) | GI50 (HCT-116 colon) | TGI (HCT-116 colon) | GI50 (HCC-2998 colon) | TGI (HCC-2998 colon) | GI50 (MALME-3M melanoma) | TGI (MALME-3M melanoma) | GI50 (T-47D breast) | TGI (T-47D breast)
C=CC(=O)Nc1cccc(Nc2nc(Nc3ccc(OCCOC)cc3)ncc2F)c1 | 2.85 µM | 24.7 µM | 2.06 µM | 16 µM | 0.824 µM | 17.1 µM | 0.533 µM | 3.17 µM | 1.82 µM | 13.1 µM | 3.55 µM | 19.5 µM | 3.08 µM | 20.9 µM | 1.7 µM | 8.9 µM
O=C(N/N=C/c1ccc(Cl)cc1Cl)c1ccccc1Nc1cccc(C(F)(F)F)c1 | 4.79 µM | 32.2 µM | 3.38 µM | 13.3 µM | 2.94 µM | 12.4 µM | 12.5 µM | 39.2 µM | 5.62 µM | 29.9 µM | 8.52 µM | > 100 µM | 2.62 µM | 10.5 µM | 2.2 µM | 6.9 µM
CCCSc1cc(Cl)nc(N)n1 | > 100 µM | > 100 µM | > 100 µM | > 100 µM | > 100 µM | > 100 µM | > 100 µM | > 100 µM | > 100 µM | > 100 µM | > 100 µM | > 100 µM | > 100 µM | > 100 µM | > 100 µM | > 100 µM
CNC(=O)c1ccc(-c2cnc3ncc(Cc4ccc5ncccc5c4)n3n2)cc1F | 40.8 µM | > 100 µM | 83 µM | > 100 µM | > 100 µM | > 100 µM | > 100 µM | > 100 µM | > 100 µM | > 100 µM | > 100 µM | > 100 µM | 62.7 µM | > 100 µM | > 100 µM | > 100 µM
CCN(Cc1c(F)cccc1F)c1ccc(CO)c(Cl)c1 | 13 µM | 38.3 µM | 24.8 µM | > 77.3 µM | 0.0429 µM | 0.319 µM | 1.65 µM | 9.91 µM | 0.0291 µM | 12.8 µM | 1.15 µM | 10.7 µM | 17.5 µM | 36.6 µM | 0.0516 µM | 0.288 µM
COc1cc(-c2cn(C)c(=O)c(C)c2C)cc(OC)c1CN1CC[C@H](N2CCN(c3ccc(N[C@H]4CCC(=O)NC4=O)cc3F)CC2)C(F)(F)C1 | 11.5 µM | 25.4 µM | 16.5 µM | 40.2 µM | 12.1 µM | 26.9 µM | 18.4 µM | 36.2 µM | 13.1 µM | 27.7 µM | 12.9 µM | 25.8 µM | 15 µM | 30.1 µM | 14.3 µM | 49.3 µM
CC(=O)n1c(-c2ccc(Cl)cc2)nc2c(c1=O)C(c1ccc(Cl)cc1)c1sc3c(Cl)cccc3c1O2 (stereo not drawn) | 0.887 µM | 2.89 µM | 0.684 µM | 3.24 µM | 0.696 µM | 4.25 µM | 0.352 µM | 1.95 µM | 0.301 µM | 1.44 µM | 1.09 µM | 2.57 µM | 0.669 µM | 2.5 µM | 0.48 µM | 2.78 µM
CCn1c(-c2nonc2N)nc2ccc(F)cc21 | > 25 µM | > 25 µM | > 25 µM | > 25 µM | > 25 µM | > 25 µM | > 25 µM | > 25 µM | > 25 µM | > 25 µM | > 25 µM | > 25 µM | > 25 µM | > 25 µM | > 25 µM | > 25 µM
CCCNCc1cc(C)cc2c1nc(N1CCNCC1)n2Cc1cc(C)c(F)c(C)c1 | 1.61 µM | 3.8 µM | 5.11 µM | 19.7 µM | 7.12 µM | 21.8 µM | 15.8 µM | 29.4 µM | 2.19 µM | 4.54 µM | 1.83 µM | 3.47 µM | 1.86 µM | 3.53 µM | 1.88 µM | 3.62 µM
O=P(O)(O)C(O)(Cn1ccnc1)P(=O)(O)O | > 40.6 µM | > 57 µM | > 100 µM | > 100 µM | > 100 µM | > 100 µM | > 81.1 µM | > 100 µM | > 53.8 µM | > 77.9 µM | 98.2 µM | > 100 µM | > 54.1 µM | > 100 µM | > 79 µM | > 100 µM
C=C(C)[C@@H]1CC[C@@]2(C(=O)O)CC[C@]3(C)C(CCC4[C@@]5(C)CCC(OS(=O)(=O)c6ccccc6)C(C)(C)C5CC[C@]43C)C12 (stereo partly drawn) | 8.58 µM | 25.6 µM | 13.6 µM | 51.5 µM | 4.49 µM | 28.5 µM | 14 µM | 44.4 µM | 2.9 µM | 13.1 µM | 2.28 µM | 10.5 µM | 12.2 µM | 26 µM | 2 µM | 17.1 µM
Nc1ccc(SC23CC4CC(CC(C4)C2)C3)cc1 |  | > 100 µM |  | > 100 µM |  |  |  | > 100 µM |  | > 100 µM |  | > 100 µM |  | > 100 µM |  | > 100 µM
Oc1ccc(Cc2ccccc2)c2cccnc12 | 4.36 µM | 27.4 µM | 2.18 µM | 86.8 µM | 6.35 µM | > 100 µM | 3.43 µM | > 100 µM | 1.79 µM | 21.5 µM | 3.65 µM | 16.6 µM | 2.96 µM | 31.6 µM | 3.6 µM | > 100 µM
CNC(=O)c1cn(C[C@H](F)CCc2ccc(NC(=O)Cc3cc(OC4CC(F)(F)C4)cc(C)n3)nn2)nn1 | > 100 µM | > 100 µM | > 100 µM | > 100 µM | > 100 µM | > 100 µM | > 100 µM | > 100 µM | > 100 µM | > 100 µM | > 100 µM | > 100 µM | > 100 µM | > 100 µM | > 100 µM | > 100 µM
CCCCCC(C(O)C#N)C(O)(C(F)(F)F)C(F)(F)F (stereo not drawn) |  | > 10 µM |  | > 10 µM |  | > 10 µM |  | > 10 µM |  | > 10 µM |  | > 10 µM |  | > 10 µM |  | > 10 µM
